Laboratory results from EP4595972A1, “PEPTIDE FOR TREATING OR PREVENTING 4R TAUOPATHY” (GemVax & KAEL Co., Ltd., priority 2022, dated 2024).

How the values were obtained:
TauP301L-BiFC mice = assay: Novel object recognition test (cognitive ability) in 4R TauP301L-BiFC mouse model; format: in vivo; conditions: LMTM 15 mg/kg; mice administered 62 times; FIG. 3
Method: • (1) On day 1, adaptation training to a new open space was conducted. After an adaptation time for two similar objects added to the corresponding open space on day 2, an experiment to evaluate a cognitive ability to the newly replaced object on day 3 was conducted. • (2) 1 hour before the experiment, a time for adaptation of experimental mice in a space wherein the behavior experiment is conducted, should be ensured. • (3) On day 1, after exposing the experimental mouse to an open space in a size of 40 x 40 cm, the mouse was subjected to behavior assessment for 10 minutes. • (4) On day 2, two similar objects were placed in the same open space, followed by enabling the mouse to learn the objects for 10 minutes. • (5) On day 3, one among the two objects learned in the same open space was replaced with a new object. At this time, a cognitive ability to the replaced object was evaluated.
Results of evaluating the cognitive ability improvement efficacy through a novel object recognition test in the 4R TauP301L-BiFC mouse model were shown in FIG. 3. The experiment was conducted using the TauP301L-BiFC mouse model including 7- to 12-month-old mice administered with the drug for 5 months. […] The obtained results were analyzed through bidirectional ANOVA using Sidak's multiple comparisons test (*p<0.05; ***p<0.0001).

[1] = system: human Tau-BiFC (hTau-VN173, hTau-VC155); assay: Tau immunoblot of brain lysate, soluble fraction, hTau; format: in vivo, mouse; conditions: LMTM 15 mg/kg oral vs. vehicle; decrease (in parentheses)
Method: • (1) After completing administration, the mice of TauP301L-BiFC mouse model were anesthetized, followed by preparing heart laparotomy. • (2) Saline was introduced to the heart of each mouse in the TauP301L-BiFC mouse model, followed by removing vivo blood using a perfusion pump machine. • (3) After removing the blood, the brain was extracted and weighed. • (4) 1 mL RIPA buffer (w/protease/phosphatase inhibitor cocktail) was added to the extracted brain, followed by homogenization. • (5) After moving the homogenized brain lysate to an ep-tube, it was subjected to incubation in 4°C orbital shaker for 2 hours. • (6) After centrifugation at 4°C with a speed of 13,000 rpm for 20 minutes, the supernatant (soluble fraction) was collected in a new ep-tube and stored at -80°C • (7) In order to prepare an immunoblot sample, the concentration of a soluble fraction sample was quantified by Bradford protein quantification method. • (8) To each sample, RIPA buffer and 4X SDS Laemmli sample buffer (w/ 2.5% β-mercaptoethanol for reducing condition) were added to reach a final concentration of 2 mg/mL. • (9) The sample was boiled at 97°C for 5 minutes. […]

[2] = reported in Kim et al., Exp. Mol. Med. 55, 612-627 (2023); read-out: GI50 (cytotoxicity side effects); cited from earlier work

CN(C)c1ccc2c(c1)Sc1cc(N(C)C)ccc1N2.CS(=O)(=O)O.CS(=O)(=O)O [LMTM]
cognitive ability for the new object (novel object recognition test), in words (TauP301L-BiFC mice): significantly improved
Soluble fraction, Phosphorylated tau, hTau (pS199) [1]: (20%)
Soluble fraction, Phosphorylated tau, hTau (pS396) [1]: (23%)
Soluble fraction, Total tau, hTau [1]: (20%)
GI50 [2]: 6.4 ± 0.3 µM
